# Measured values as given in the supplement of paper PMC10307832.
# Tests used:
# Assay in all cases: relative viability (nuclei count vs DMSO), 5 days (fraction); higher = more cells survive
# Tipifarnib + Navitoclax = compound: Cn1cncc1[C@@](N)(c1ccc(Cl)cc1)c1ccc2c(c1)c(-c1cccc(Cl)c1)cc(=O)n2C [Tipifarnib] + CC1(C)CCC(c2ccc(Cl)cc2)=C(CN2CCN(c3ccc(C(=O)NS(=O)(=O)c4ccc(N[C@H](CCN5CCOCC5)CSc5ccccc5)c(S(=O)(=O)C(F)(F)F)c4)cc3)CC2)C1 [Navitoclax] (partner 0.5 µM)
# How it was run: (§1)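 For relative viability, nuclei counts in treated wells were divided by those in vehicle wells. Lung cancer cell lines had been pin-tool dosed in 1536-well plates the day after seeding and cultured for 5 days, then fixed and stained in one step (final 0.05% Triton X-100, 1% formaldehyde, 1 ug/ml Hoechst) and imaged at 4×. Doses were one drug alone or a fixed anchor-drug dose plus five library-drug doses (not always all listed) in √10 steps, and values are duplicate-plate medians.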
# Tipifarnib + Linsitinib = compound: Cn1cncc1[C@@](N)(c1ccc(Cl)cc1)c1ccc2c(c1)c(-c1cccc(Cl)c1)cc(=O)n2C [Tipifarnib] + C[C@]1(O)C[C@@H](c2nc(-c3ccc4ccc(-c5ccccc5)nc4c3)c3c(N)nccn32)C1 [Linsitinib] (partner 1 µM)
# How it was run: as §1
# Tipifarnib + Foretinib = compound: Cn1cncc1[C@@](N)(c1ccc(Cl)cc1)c1ccc2c(c1)c(-c1cccc(Cl)c1)cc(=O)n2C [Tipifarnib] + COc1cc2c(Oc3ccc(NC(=O)C4(C(=O)Nc5ccc(F)cc5)CC4)cc3F)ccnc2cc1OCCCN1CCOCC1 [Foretinib] (partner 0.25 µM)
# How it was run: as §1
# Tipifarnib + Luminespib = compound: Cn1cncc1[C@@](N)(c1ccc(Cl)cc1)c1ccc2c(c1)c(-c1cccc(Cl)c1)cc(=O)n2C [Tipifarnib] + CCNC(=O)c1noc(-c2cc(C(C)C)c(O)cc2O)c1-c1ccc(CN2CCOCC2)cc1 [Luminespib] (partner 0.01 µM)
# How it was run: as §1
Cell Line,relative viability (Tipifarnib + Navitoclax; first compound 0.01 µM),relative viability (Tipifarnib + Navitoclax; first compound 0.03162 µM),relative viability (Tipifarnib + Navitoclax; first compound 0.1 µM),relative viability (Tipifarnib + Navitoclax; first compound 0.3162 µM),relative viability (Tipifarnib + Navitoclax; first compound 1 µM),relative viability (Tipifarnib + Linsitinib; first compound 0.01 µM),relative viability (Tipifarnib + Linsitinib; first compound 0.03162 µM),relative viability (Tipifarnib + Linsitinib; first compound 0.1 µM),relative viability (Tipifarnib + Linsitinib; first compound 0.3162 µM),relative viability (Tipifarnib + Linsitinib; first compound 1 µM),relative viability (Tipifarnib + Foretinib; first compound 0.01 µM),relative viability (Tipifarnib + Foretinib; first compound 0.03162 µM),relative viability (Tipifarnib + Foretinib; first compound 0.1 µM),relative viability (Tipifarnib + Foretinib; first compound 0.3162 µM),relative viability (Tipifarnib + Foretinib; first compound 1 µM),relative viability (Tipifarnib + Luminespib; first compound 0.01 µM),relative viability (Tipifarnib + Luminespib; first compound 0.03162 µM),relative viability (Tipifarnib + Luminespib; first compound 0.1 µM),relative viability (Tipifarnib + Luminespib; first compound 0.3162 µM),relative viability (Tipifarnib + Luminespib; first compound 1 µM)
201T,1.21,1.23,1.2,1.15,1.18,1.04,1.04,0.989,0.949,1.07,1.13,1.09,1.02,0.839,0.875,1.05,1.06,0.991,0.972,0.938
A549,1.18,0.981,0.678,0.531,0.341,0.707,0.596,0.49,0.325,0.233,1.03,0.843,0.386,0.296,0.366,,,,,
A-427,1,0.951,0.955,0.874,0.812,1.18,1.11,1.05,1.09,1.09,1.19,1.06,1.06,0.873,0.927,0.828,0.877,0.849,0.691,0.548
ABC-1,,,,,,0.827,,0.76,0.665,0.554,1.28,,0.965,0.762,0.843,0.914,,0.321,0.347,0.278
BEN,0.0636,0.0524,0.0587,0.0688,0.0536,1.03,1.18,0.835,0.696,0.716,0.609,0.686,0.529,0.484,0.379,0.324,0.459,0.226,0.17,0.351
CAL-12T,1.21,1.1,0.768,0.526,0.716,0.812,0.606,0.616,0.387,0.403,1.09,0.885,0.727,0.469,0.536,0.284,0.335,0.267,0.151,0.15
COR-L23,1.15,0.804,0.679,0.492,0.556,1.01,0.628,0.614,0.374,0.409,1.14,0.839,0.699,0.618,0.579,0.814,0.568,0.511,0.344,0.438
COR-L 105,0.874,0.578,0.739,0.576,0.559,0.88,0.855,0.674,0.554,0.668,1.18,0.872,0.897,0.504,0.604,0.692,0.775,0.475,0.432,0.675
Calu-6,0.538,0.35,0.196,0.194,0.2,0.941,0.679,0.645,0.515,0.444,0.886,0.62,0.698,0.518,0.424,,,,,
ChaGo-K-1,1.07,1.11,1.09,0.933,0.626,,,,,,1.06,0.873,0.848,0.852,0.665,0.669,0.558,0.454,0.505,0.389
EKVX,1.01,0.861,0.841,0.744,0.49,1.06,1.11,0.972,0.755,0.657,0.818,0.767,0.811,0.705,0.324,0.95,0.856,0.41,0.776,0.496
EMC-BAC-2,1.2,1.12,1.06,0.993,0.816,0.855,0.798,0.689,0.706,0.636,1.06,0.921,1,0.9,0.82,1.27,0.907,0.974,0.847,0.752
EPLC-272H,1.34,0.908,1.07,0.837,0.741,1.17,1.16,1.21,0.83,0.531,0.68,0.631,0.569,0.443,0.257,0.196,0.267,0.233,0.378,0.173
H3255,0.546,0.568,0.496,0.35,0.299,1.06,0.895,0.916,0.591,0.684,0.921,0.977,0.805,0.636,0.508,1.13,0.873,0.846,0.654,0.53
HARA,1.18,1.14,1.18,1.14,1.13,1.08,0.925,0.956,0.94,0.87,1.1,0.828,0.96,0.951,0.269,0.694,0.682,0.526,0.522,0.221
HCC-15,0.66,0.618,0.555,0.335,0.334,0.78,0.751,0.627,0.544,0.548,0.967,0.917,0.785,0.635,0.595,0.332,0.306,0.245,0.302,0.357
HCC-44,1.06,0.944,0.784,0.726,0.696,0.563,0.615,0.557,0.493,0.521,,,,,,0.98,0.93,0.899,0.839,0.855
